Read-outs that look alike come from different tables or passages of the source.
What was measured:
Test in all cases: Postemergence herbicide evaluation, percent reduction in plant size vs untreated control, 21 days after treatment
[1] = tested on: Amaranthus palmeri (AMAPA); type: in vivo, Amaranthus palmeri (Palmer amaranth); settings: post-emergence, 504 h, postemergence, read-out: Control/Injury; for pest or weed control at 140 g/ha: rate 140 g ae/ha; for pest or weed control at 280 g/ha: rate 280 g ae/ha
Protocol: (§1) Plants were grown in a soil media composed of 90% by volume Promix BX (Premier Tech Horticulture, Quakertown, PA) and 10% Profile Greens Grade (Profile Products LLC, Buffalo Grove, IL). Promix BX contains approximately 83% Sphagnum Peat Moss, 13% Perlite, 5% vermiculite, and proprietary amounts of limestone, starter fertilizer, and wetting agent. Profile Greens Grade is a sand-sized granule formed from calcining illite and montmorillonite clay. Several seeds of each species were planted in 10 cm square pots and top watered twice daily. Plant material was propagated in a warm greenhouse with temperature ranging from 25 to 28° C. and 50 to 60% relative humidity at the Corteva Global Headquarters (Indianapolis, Indiana, USA). Natural light was supplemented with 1000-watt metal halide overhead lamps with an average illumination of 500 μE m^−2 s^−1 photosynthetic active radiation for 16 consecutive hours each day. Plants were top-watered prior to herbicide application and sub-watered after herbicide application.
(§2) Appropriate amounts of test materials were weighed out into glass vials in their technical form to deliver either 140 or 280 g acid equivalent (ae)/ha. The samples were dissolved in 3 ml of Solvent 1. Solvent 1 is 97% acetone and 3% dimethyl sulfoxide and serves as a general-purpose solvent (GPS) for dissolving technical materials. […] The samples were then diluted to their final concentration using 17 ml of solvent 2 for a total of 20 ml of spray solution. Solvent 2 contains 41.58% GPS, 45.53% water, 11.88% isopropyl alcohol, 0.99% crop oil concentrate and 0.02% Trition X-155 surfactant. All percentages are listed on a volume basis. Dicamba diglycolamine was applied as a formulated herbicide, Clarity™ and diluted with solvent 2 to compare all materials in the same spray solution.
(§3) Herbicide applications were made to 3 to 4 replicates of each plant species at the 2 to 8 leaf stage, depending on the species. Treatments were applied with a research track-sprayer (Generation III Research Sprayer manufactured by DeVries Manufacturing in Hollandale, MN, USA) calibrated to deliver a spray volume of 187 L/ha. The track-sprayer was fitted with an 8003E nozzle from Spray Systems Company (North Avenue and Schmale Road, P.O. Box 7900, Wheaton, IL 60187), and used a spray pressure of 276 kPa pressure and a speed of 3.1 km/h. The nozzle height was 46 cm above the plant canopy. The experimental design used for the trials was a randomized complete block with 3 or 4 replications per treatment. After application, plants were placed on carts according to the randomization and returned to the greenhouse. Plants were sub-watered after treatment with Indianapolis city water or fertilized three times a week with a commercial fertilizer solution (Jack's Professional 15-5-15 4 Ca 2 Mg fertilizer (manufactured by JR PETERS INC., 6656 Grant Way, Allentown, PA 18106; www.jrpeters.com). Percent visual control assessments were made on a scale of 0 to 100% (where 0 was no control and 100 was complete plant death) at 7, 14, and 21 days after treatment.
(§4) In conformity with the methods outlined in Example 49, the effect of representative experimental compounds on the growth of Amaranthus palmeri (AMAPA), common name, Palmer amaranth, was determined at 2 different levels (respectively, 140 and 280 g acid equivalent (ae)/ha) of the experimental actives tested. Plants were treated with one of the compounds, a control plant was not treated. Twenty-one days after treatment, the plants were measured. The data is present as a percent reduction in plant size relative to the untreated control.

Kochia scoparia (KCHSC) = type: in vivo; settings: Bassia scoparia, post-emergence, 504 h, KCHSC, postemergence, read-out: Control/Injury; for pest or weed control at 140 g/ha: rate 140 g ae/ha; for pest or weed control at 280 g/ha: rate 280 g ae/ha
Protocol: as §1, §2, §3
as §4, with “Kochia scoparia (KCHSC)” for “Amaranthus palmeri (AMAPA), common name, Palmer amaranth,”

[2] = tested on: Conyza canadensis (L.) (ERICA); type: in vivo, Conyza canadensis (L.) (Horseweed); settings: Erigeron canadensis, post-emergence, 504 h, ERICA, postemergence, read-out: Control/Injury; for pest or weed control at 140 g/ha: rate 140 g ae/ha; for pest or weed control at 280 g/ha: rate 280 g ae/ha
Protocol: as §1, §2, §3
as §4, with “Conyza canadensis (L.), (ERICA),” for “Amaranthus palmeri (AMAPA),”, “Horseweed,” for “Palmer amaranth,”

Amaranthus rudis (AMATA) = type: in vivo, Amaranthus rudis (tall water hemp); settings: Amaranthus tuberculatus, post-emergence, 504 h, AMATA, postemergence, read-out: Control/Injury; for pest or weed control at 140 g/ha: rate 140 g ae/ha; for pest or weed control at 280 g/ha: rate 280 g ae/ha
Protocol: as §1, §2, §3
as §4, with “rudis (AMATA),” for “palmeri (AMAPA),”, “name tall water hemp,” for “name, Palmer amaranth,”

[3] = tested on: Ambrosia artemisiifolia (AMBEL); type: in vivo, Ambrosia artemisiifolia (common ragweed); settings: post-emergence, 504 h, AMBEL, postemergence, read-out: Control/Injury; for pest or weed control at 140 g/ha: rate 140 g ae/ha; for pest or weed control at 280 g/ha: rate 280 g ae/ha
Protocol: as §1, §2, §3
as §4, with “Ambrosia artemisiifolia (AMBEL), (common ragweed),” for “Amaranthus palmeri (AMAPA), common name, Palmer amaranth,”

[4] = R-AMAPA, percent reduction vs untreated control, 21 days after treatment
[5] = percent reduction vs untreated control, 21 days after treatment
[6] = percent reduction vs untreated, 21 days after treatment

| Compound | pest or weed control at 140 g/ha [1, 4] | pest or weed control at 280 g/ha [1, 4] | pest or weed control at 140 g/ha (Kochia scoparia (KCHSC)) | pest or weed control at 280 g/ha (Kochia scoparia (KCHSC)) | pest or weed control at 140 g/ha [2, 5] | pest or weed control at 280 g/ha [2, 5] | pest or weed control at 140 g/ha (Amaranthus rudis (AMATA)) | pest or weed control at 280 g/ha (Amaranthus rudis (AMATA)) | pest or weed control at 140 g/ha [3] | pest or weed control at 280 g/ha [3] | pest or weed control at 140 g/ha ([1]; AMAPA) | pest or weed control at 280 g/ha ([1]; AMAPA) | pest or weed control at 140 g/ha (Kochia scoparia (KCHSC); [6]) | pest or weed control at 280 g/ha (Kochia scoparia (KCHSC); [6]) | pest or weed control at 140 g/ha [2] | pest or weed control at 280 g/ha [2] |
| --- | --- | --- | --- | --- | --- | --- | --- | --- | --- | --- | --- | --- | --- | --- | --- | --- |
| COc1c(Cl)ccc(Cl)c1C(=O)ON(Cc1ccccc1)Cc1ccccc1 [Compound A-72] | 72% | 83% | 82% | 94% | 83% | 92% | 63% | 74% | 82% | 98% | – | – | – | – | – | – |
| COc1c(Cl)ccc(Cl)c1C(=O)NOc1ccc([N+](=O)[O-])cc1 [Compound A-97] | – | – | – | – | 75% | 70% | 55% | 68% | 73% | 90% | 50% | 65% | 73% | 88% | 18% | 40% |
| COc1c(Cl)ccc(Cl)c1C(=O)O/N=C/c1cc(/C=N/OC(=O)c2c(Cl)ccc(Cl)c2OC)cc(/C=N/OC(=O)c2c(Cl)ccc(Cl)c2OC)c1 [Compound A-99] | – | – | – | – | – | – | 84% | 78% | 96% | 95% | 90% | 80% | 93% | 95% | 97% | 99% |
| COc1c(Cl)ccc(Cl)c1C(=O)NOC1CCCCO1 (stereo not drawn) [Compound A-100] | – | – | – | – | – | – | 0% | 19% | 5% | 20% | 0% | 15% | 0% | 0% | 8% | 13% |
| C=CCONC(=O)c1c(Cl)ccc(Cl)c1OC [Compound A-101] | – | – | – | – | – | – | 18% | 33% | 25% | 15% | 18% | 13% | 0% | 0% | 0% | 8% |
| COc1c(Cl)ccc(Cl)c1C(=O)Oc1nccs1 [Compound A-103] | – | – | – | – | – | – | 8% | 18% | 28% | 12% | 35% | 30% | 0% | 3% | 0% | 3% |
| COc1c(Cl)ccc(Cl)c1C(=O)N1CCCCO1 [Compound A-104] | – | – | – | – | – | – | 73% | 92% | 5% | 15% | 45% | 65% | 3% | 13% | 0% | 10% |
| COc1c(Cl)ccc(Cl)c1C(=O)Nc1ccon1 [Compound A-106] | – | – | – | – | – | – | 25% | 28% | 25% | 28% | 25% | 20% | 3% | 3% | 5% | 10% |
| CCN(CC)C(=O)c1c(Cl)ccc(Cl)c1OC [Compound A-107] | – | – | – | – | – | – | 2% | 18% | 10% | 18% | 9% | 18% | 0% | 0% | 3% | 5% |
| COc1c(Cl)ccc(Cl)c1C(=O)NNc1nc(C)cs1 [Compound A-108] | – | – | – | – | – | – | 18% | 28% | 5% | 15% | 8% | 28% | 0% | 3% | 5% | 8% |

— US20240122179A1, “AUXINIC HERBICIDES AND METHODS OF USE THEREOF” (CORTEVA AGRISCIENCE LLC, priority 2021, published 2024)
